Reference: US8900600B2, “Identification, optimization and use of cryptic HLA-A24 epitopes for immunotherapy” (VAXON Biotech, priority 2009, dated 2014)

What was measured:
[1] = system: HLA-A*2402 transgenic mice; assay: CTL induction in vivo in HLA-A*2402 transgenic mice (immunogenicity, Cr51 cytotoxic assay); design: key to Immunogenicity: (−) means that none of the mice vaccinated with the corresponding native peptides develops a specific immune response; (+) that less to 50% of vaccinated mice responded; (++) that more that 50% responded; key to Immunogenicity (class): −: (-) means that none of the mice vaccinated with the corresponding native peptides develops a specific immune response; (+) that less to 50% of vaccinated mice responded; (++) that more that 50% responded; conditions: for Immunogenicity (X/Y): X mice develop a specific response for a total of Y mice vaccinated / Immunogenicity (class): Table 7, mice vaccinated with the native or modified peptide; for Immunogenicity (class): share of mice responding; for Immunogenicity: Table 5, mice vaccinated with 100 μg native peptide in IFA, share of mice with specific immune response
Protocol: FIG. 1: Panels 1A-1F of FIG. 1 show immunogenicity of HLA-A*2402 cryptic peptides. HLA-A*2402 transgenic mice were vaccinated with the cryptic peptides following the described protocol and generated CTL were tested against T2-A24 targets loaded with peptide as indicated (NR non relevant peptide). Percentage of specific lysis was determined as: Lysis=(Experimental Release−Spontaneous Release)/(Maximal Release−Spontaneous Release)×100. Four CTL dilutions, corresponding to four CTL/target cells ratio were tested.
(§1) The transgenic mice used in the described experiments were obtained by crossing HLA-A24 transgenic mice previously described (Barra et al., 1993) and H2 Kb^− H2 Db^− knock out mice, transgenic for both human β2 microglobulin and CD8α chain (Perarnau et al., 1999).
Mice were injected subcutaneously with 100 μg of peptide emulsified in Incomplete Freund's Adjuvant (IFA) in the presence of 150 μg of the I-A^b restricted HBVcore128 T helper epitope (TPPAYRPPNAPIL, SEQ ID NO: 112). After 15 days, 5×10^7 spleen cells were stimulated twice in vitro with peptide (10 μM), at 6 days interval. On day 13 of culture, the bulk responder populations were tested for specific cytotoxicity against target cells expressing HLA-A*2402 and loaded with the same peptide.
(§2) Targets were labelled with 100 μCi of Cr^51 for 60 min, plated in 96-well V-bottomed plates (3×10^3 cell/well in 100 μL of RPMI 1640 medium) and, when necessary, pulsed with optimized or native peptides (1 μM) at 37° C. for 2 hours. Four dilutions of effector cells were then added in the wells and incubated at 37° C. for 4 hours. Percentage of specific lysis was determined as: Lysis=(Experimental Release−Spontaneous Release)/(Maximal Release−Spontaneous Release)×100.

[2] = system: HLA-A*2402 transgenic mice; assay: Cross-recognition assay: CTL from mice vaccinated with optimized peptide tested on targets loaded with native peptide; format: in vivo; conditions: Table 7, CTL of mice vaccinated with the optimized peptide
Protocol: FIG. 2: Panels 2A-2F of FIG. 2 show immunogenicity of HLA-A*2402 restricted optimized cryptic peptides. HLA-A*2402 transgenic mice were vaccinated with the optimized peptide following the described protocol and generated CTL were tested against T2-A24 targets loaded with the optimized (immunogenicity), the corresponding native (native peptide cross recognition) or an irrelevant (NR) peptide as indicated. Percentage of specific lysis was determined as: Lysis=(Experimental Release−Spontaneous Release)/(Maximal Release−Spontaneous Release)×100. Four CTL dilutions, corresponding to four CTL/target cells ratio were tested.
as §1
Mice were injected subcutaneously with 100 μg of optimized peptide emulsified in Incomplete Freund's Adjuvant (IFA) in the presence of 150 μg of the I-A^b restricted HBVcore128 T helper epitope (TPPAYRPPNAPIL, SEQ ID NO: 112). After 15 days, 5×10^7 spleen cells were stimulated firstly in vitro with the optimized peptide (10 μM), and secondly on day 6 of culture with the corresponding native peptide. On day 13, the bulk responder populations were tested for specific cytotoxicity against targets cells expressing HLA-A*2402 and loaded with the optimized, the native or an irrelevant peptide.
as §2

[3] = molecular target: HLA-A*2402 (Homo sapiens, UniProt P04439, D101N/D140Y/D185E/E176V/E190D/F33S/G103R/G107R/I119L/I121M/I306V/K335N/L105A/L180Q/L300P/N151K/N90K/Q86E/Q94H/R106L/R138H/R89G/T104I/T345S/V100E/W191G/Y123F); assay: Measurement of peptide relative affinity to HLA-A*2402 (surface expression on T2-A24 cells); format: cell-based; conditions: for RA (Relative Affinity): T2-A24 cells, 16 hours at 37° C., relative to reference peptide standard A24, concentration inducing 30% of HLA-A*2402 expression
Protocol: Measurement of Peptide Relative Affinity to HLA-A*2402.
The protocol used has been described previously (Rohrlich et al., 2003). Briefly, T2-A24 cells were incubated at 37° C. for 16 hours with peptides concentrations ranging from 100 μM to 0.1 μM, and then stained with 0041HA monoclonal antibody (mAb)(One Lambda, Inc.) to quantify the surface expression of HLA-A*2402. For each peptide concentration, the HLA-A*2402 specific staining was calculated as the percentage of staining obtained with 100 μM of the reference peptide standard A24 (AYIDNYNKF, SEQ ID NO: 111). The relative affinity (RA) was determined as: RA=(Concentration of each peptide that induces 30% of HLA-A*2402-expression/Concentration of the reference peptide that induces 30% of HLA-A*2402 expression).

RYDGIPARL (Optimized peptide derived from cryptic peptides of SEQ ID Nos 1 to 9) [Her2/neu 922 R1L9, modified peptide]
Immunogenicity (X/Y): X mice develop a specific response for a total of Y mice vaccinated [1]: 0/9
Immunogenicity (class) [1]: −

RYMRQFVAL (Optimized peptide derived from cryptic peptides of SEQ ID Nos 1 to 9) [TERT 770 R1L9]
Immunogenicity in HLA-A24 transgenic mice (in words) [1]: developed peptide specific CTLs
Immunogenicity (X/Y): X mice develop a specific response for a total of Y mice vaccinated [1]: 12/18
Immunogenicity (class) [1]: ++ ((++) that more that 50% responded)

PYGKGWDLM (Cryptic HLA-A2402 restricted peptide) [EphA2 47, native cryptic HLA-A*2402 restricted peptide]
Immunogenicity [1]: −
Immunogenicity (X/Y): X mice develop a specific response for a total of Y mice vaccinated [1]: 0/6
Immunogenicity (class) [1]: −
Native peptide cross recognition (X/Y): X mice develop a specific response for a total of Y mice vaccinated [2]: 7/9
Native peptide cross recognition (class) [2]: ++ ((++) that more that 50% responded)

TYLVQVQAL (Cryptic HLA-A2402 restricted peptide) [EphA2 502, native cryptic HLA-A*2402 restricted peptide]
Immunogenicity [1]: −
Immunogenicity (X/Y): X mice develop a specific response for a total of Y mice vaccinated [1]: 0/3
Immunogenicity (class) [1]: −
Native peptide cross recognition (X/Y): X mice develop a specific response for a total of Y mice vaccinated [2]: 2/3
Native peptide cross recognition (class) [2]: ++ ((++) that more that 50% responded)

PYGVLLKTH (Cryptic HLA-A2402 restricted peptide) [TERT 403, native cryptic HLA-A*2402 restricted peptide]
Immunogenicity [1]: −
Immunogenicity (X/Y): X mice develop a specific response for a total of Y mice vaccinated [1]: 0/3
Immunogenicity (class) [1]: −
Native peptide cross recognition (X/Y): X mice develop a specific response for a total of Y mice vaccinated [2]: 3/15
Native peptide cross recognition (class) [2]: + ((+) that less to 50% of vaccinated mice responded)
RA (Relative Affinity) [3]: − ((−) means RA > 100)

RYEFLWGPL (Optimized peptide derived from cryptic peptides of SEQ ID Nos 1 to 9) [MAGE 261 L9, modified peptide]
Immunogenicity (X/Y): X mice develop a specific response for a total of Y mice vaccinated [1]: 0/9
Immunogenicity (class) [1]: −

RYLVQVQAL (Optimized peptide derived from cryptic peptides of SEQ ID Nos 1 to 9) [EphA2 502 R1]
Immunogenicity in HLA-A24 transgenic mice (in words) [1]: developed peptide specific CTLs
Immunogenicity (X/Y): X mice develop a specific response for a total of Y mice vaccinated [1]: 3/3
Immunogenicity (class) [1]: ++ ((++) that more that 50% responded)

PYWELSNHE (Cryptic HLA-A2402 restricted peptide) [EphA2 817, native cryptic HLA-A*2402 restricted peptide]
Immunogenicity [1]: −
Immunogenicity (X/Y): X mice develop a specific response for a total of Y mice vaccinated [1]: 0/3
Immunogenicity (class) [1]: −
Native peptide cross recognition (X/Y): X mice develop a specific response for a total of Y mice vaccinated [2]: 2/3
Native peptide cross recognition (class) [2]: ++ ((++) that more that 50% responded)

PYNYLSTDV (Cryptic HLA-A2402 restricted peptide) [Her2/neu 300, native cryptic HLA-A*2402 restricted peptide]
Immunogenicity [1]: −
Immunogenicity (X/Y): X mice develop a specific response for a total of Y mice vaccinated [1]: 0/3
Immunogenicity (class) [1]: −
RA (Relative Affinity) [3]: − ((−) means RA > 100)

PYGCLLDHV (Cryptic HLA-A2402 restricted peptide) [Her2/neu 802]
Immunogenicity in HLA-A24 transgenic mice (in words) [1]: immunogenic
Immunogenicity [1]: ++ ((++) that more that 50% responded)
Binding to HLA-A*2402 (in words) [3]: binds to the HLA-A*2402
RA (Relative Affinity) [3]: + ((+) 5 < RA < 10)

RYEFLWGPR (Cryptic HLA-A2402 restricted peptide) [MAGE 261, native cryptic HLA-A*2402 restricted peptide]
Immunogenicity [1]: −
Immunogenicity (X/Y): X mice develop a specific response for a total of Y mice vaccinated [1]: 0/3
Immunogenicity (class) [1]: −
RA (Relative Affinity) [3]: − ((−) means RA > 100)

RYWELSNHL (Optimized peptide derived from cryptic peptides of SEQ ID Nos 1 to 9) [EphA2 817 R1L9]
Immunogenicity in HLA-A24 transgenic mice (in words) [1]: developed peptide specific CTLs
Immunogenicity (X/Y): X mice develop a specific response for a total of Y mice vaccinated [1]: 2/3
Immunogenicity (class) [1]: ++ ((++) that more that 50% responded)

RYVSRLLGI (Optimized peptide derived from cryptic peptides of SEQ ID Nos 1 to 9) [HER 780 R1]
Immunogenicity in HLA-A24 transgenic mice (in words) [1]: developed peptide specific CTLs
Immunogenicity (X/Y): X mice develop a specific response for a total of Y mice vaccinated [1]: 4/9
Immunogenicity (class) [1]: + ((+) that less to 50% of vaccinated mice responded)

RYGKGWDLL (Optimized peptide derived from cryptic peptides of SEQ ID Nos 1 to 9) [EphA2 47 R1L9]
Immunogenicity in HLA-A24 transgenic mice (in words) [1]: developed peptide specific CTLs
Immunogenicity (X/Y): X mice develop a specific response for a total of Y mice vaccinated [1]: 7/9
Immunogenicity (class) [1]: ++ ((++) that more that 50% responded)

KYGVLLKTL (Optimized peptide derived from cryptic peptides of SEQ ID Nos 1 to 9) [TERT 403 K1L9]
Immunogenicity in HLA-A24 transgenic mice (in words) [1]: developed peptide specific CTLs
Immunogenicity (X/Y): X mice develop a specific response for a total of Y mice vaccinated [1]: 4/15
Immunogenicity (class) [1]: + ((+) that less to 50% of vaccinated mice responded)

RYNYLSTDL (Optimized peptide derived from cryptic peptides of SEQ ID Nos 1 to 9) [Her2/neu 300 R1L9, modified peptide]
Immunogenicity (X/Y): X mice develop a specific response for a total of Y mice vaccinated [1]: 0/9
Immunogenicity (class) [1]: −

PYDGIPARE (Cryptic HLA-A2402 restricted peptide) [Her2/neu 922, native cryptic HLA-A*2402 restricted peptide]
RA (Relative Affinity) [3]: − ((−) means RA > 100)
